This is an account of results in patent US6355673B1, “Substituted diaminocarboxylic acids” (Aventis Pharma Deutschland GmbH, priority 1997, dated 2002).

For one data set, the target named is T1, stromelysin (MMP-3) (Homo sapiens, UniProt P08254).
T1 construct: enzymatic activity of the catalytic domains of human stromelysin and of neutrophil collagenase; made in house
In words: Enzyme inhibition of the catalytic domain of human stromelysin (fluorogenic substrate). The format is biochemical. The conditions noted are these: 15 min preincubation, pH=6.5, fluorescence 328 nm (ex)/393 nm (em). The gist of the method: (§1)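 Recombinant catalytic domains of MMP-3 or MMP-8 were preincubated 15 min with compound in Tris/NaCl/CaCl2/PIPES buffer with 0.05% Brij, pH 6.5. Reaction was started with Mca-Pro-Leu-Gly-Leu-Dpa-Ala-Arg-NH2 and followed by fluorescence (328/393 nm) as rate per min; IC50 was the concentration giving 50% inhibition.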

The target of data set [1] is T2, neutrophil collagenase (MMP-8) (Homo sapiens, UniProt P22894).
T2 construct: enzymatic activity of the catalytic domains of human stromelysin and of neutrophil collagenase; made in house
T2 sequence (P22894 100-262 limits assumed): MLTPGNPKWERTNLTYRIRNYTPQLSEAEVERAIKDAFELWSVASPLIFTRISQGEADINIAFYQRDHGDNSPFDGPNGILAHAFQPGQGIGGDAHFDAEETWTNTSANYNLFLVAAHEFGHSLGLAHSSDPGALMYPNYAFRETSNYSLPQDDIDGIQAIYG
In words: Enzyme inhibition of the catalytic domain of neutrophil collagenase (fluorogenic substrate). The class given is biochemical. The conditions noted are these: 15 min preincubation, pH=6.5, fluorescence 328 nm (ex)/393 nm (em). The gist of the method: as §1

The term melting point denotes the temperature of the solid-liquid transition. One may read the IC50 as the concentration at which inhibition is half-maximal. The low end stands for higher potency, the high end for lower potency.

T1 sequence (P08254 100-272 limits assumed): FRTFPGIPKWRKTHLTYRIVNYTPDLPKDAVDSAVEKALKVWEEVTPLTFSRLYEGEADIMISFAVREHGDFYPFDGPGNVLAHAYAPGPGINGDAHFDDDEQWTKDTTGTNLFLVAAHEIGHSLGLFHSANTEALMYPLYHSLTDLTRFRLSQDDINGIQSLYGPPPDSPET

With `O=C(O)C(CCN1C(=O)c2ccccc2C1=O)NS(=O)(=O)c1ccc(-c2ccccc2)cc1` (racemic) [Example 27], the melting point worked out at 176 °C.

For `O=C(O)C(CCN1C(=O)c2ccccc2C1=O)NS(=O)(=O)c1ccc(-c2ccc(Cl)cc2)cc1` (racemic) [Example 29], the melting point was 238 °C. On stromelysin (MMP-3), 6 nM corresponded to half-maximal inhibition (IC50). Further, it took 3 nM to reach half-maximal inhibition in data set [1] (IC50).

For `O=C(O)C(CCCN1C(=O)c2ccccc2C1=O)NS(=O)(=O)c1ccc(-c2ccccc2)cc1` (racemic) [Example 30], the melting point was determined as 168 °C. The 50% inhibitory concentration (IC50) against stromelysin (MMP-3) was 30 nM. Moreover, the IC50 in data set [1] came out at 5 nM.

In turn, `O=C(O)C(CCCN1C(=O)c2ccccc2C1=O)NS(=O)(=O)c1ccc(-c2ccc(Cl)cc2)cc1` (racemic) [Example 31] returned a melting point of 132 °C. Moreover, the IC50 against stromelysin (MMP-3) came to 5 nM. 2 nM corresponded to half-maximal inhibition in data set [1] (IC50).

With `O=C(O)C(CCCCN1C(=O)c2ccccc2C1=O)NS(=O)(=O)c1ccc(-c2ccccc2)cc1` (racemic) [Example 33], the melting point came to 181 °C.

`O=C(O)[C@@H](CCCN1C(=O)c2ccccc2C1=O)NS(=O)(=O)c1ccc(-c2ccc(Cl)cc2)cc1` [Example 6, 2-(2R)-(4-Chlorobiphenylsulfonylamino)-5-phthalimidoyl-pentanoic acid] displayed a melting point of 178 °C. Moreover, at stromelysin (MMP-3), the half-inhibitory concentration (IC50) was found to be 5 nM. Moreover, the IC50 in data set [1] is 2 nM.

`COC(=O)[C@@H](CCCCNC(=O)OCc1ccccc1)NS(=O)(=O)c1ccc(-c2ccc(Cl)cc2)cc1` [Example 17] gave a melting point of 69 to 70 °C.

With `O=C(O)[C@H](CCN1C(=O)c2ccccc2C1=O)NS(=O)(=O)c1ccc(-c2ccccc2)cc1` [Example 28], the melting point stood at 167 °C. Further, on stromelysin (MMP-3), the IC50 is 40 nM. The half-inhibitory concentration (IC50) in data set [1] was 6 nM.

`O=C(O)[C@H](CCCN1C(=O)c2ccccc2C1=O)NS(=O)(=O)c1ccc(-c2ccc(Cl)cc2)cc1` [Example 32] yielded a melting point of 179 °C. On stromelysin (MMP-3), this compound registered an IC50 of 6 nM. Moreover, the 50% inhibitory concentration (IC50) in data set [1] is 2 nM.

`O=C(O)[C@H](CCCN1Cc2ccccc2C1=O)NS(=O)(=O)c1ccc(-c2ccc(Cl)cc2)cc1` [Example 34] came in with a melting point of 213 to 215 °C. This compound also displayed an IC50 on stromelysin (MMP-3) of 4 nM. The compound further returned an IC50 in data set [1] of 2 nM.

`O=C(O)[C@H](CCCN1Cc2ccccc2C1=O)NS(=O)(=O)c1ccc(Oc2ccc(Cl)cc2)cc1` [Example 68] showed a melting point of 223 to 225 °C.

Turning to `COc1cc(Cl)cc(C(=O)NCCC[C@H](NS(=O)(=O)c2ccc(-c3ccc(Cl)cc3)cc2)C(=O)O)c1` [Example 156], the values for the IC50 (against stromelysin (MMP-3); in data set [1]) were 60 nM and 20 nM, respectively.

For `O=C(CCCc1ccccc1)NCCC[C@H](NS(=O)(=O)c1ccc(-c2ccc(Cl)cc2)cc1)C(=O)O` [Example 157], the IC50 turned out to be 40 nM on stromelysin (MMP-3) and 7 nM in data set [1].

On to `O=C(O)[C@H](CCCN1C(=O)C2CSCN2C1=O)NS(=O)(=O)c1ccc(-c2ccc(Cl)cc2)cc1` (stereo partly shown) [Example 158], for which the IC50 on stromelysin (MMP-3) worked out at 7 nM; in data set [1], 2 nM.

Regarding `O=C(NCCC[C@H](NS(=O)(=O)c1ccc(-c2ccccc2)cc1)C(=O)O)c1ccccc1Cl` [Example 160], the IC50 against stromelysin (MMP-3) was 70 nM; in data set [1] it was 10 nM.

On to `O=C(NCCC[C@H](NS(=O)(=O)c1ccc(-c2ccccc2)cc1)C(=O)O)C1CC1` [Example 161], for which the half-maximal inhibitory concentration (IC50) against stromelysin (MMP-3) was 40 nM; in data set [1], 4 nM.

For `O=C(NCCC[C@H](NS(=O)(=O)c1ccc(-c2ccc(Cl)cc2)cc1)C(=O)O)c1cc(Cl)ccc1O` [Example 162], the IC50 at stromelysin (MMP-3) amounted to 50 nM; in data set [1], 6 nM.

As for `Cc1oncc1C(=O)NCCCC[C@@H](NS(=O)(=O)CCc1ccc(-c2ccccc2)cc1)C(=O)O` [Example 168], the IC50 came out at 40 nM against stromelysin (MMP-3) and 20 nM in data set [1].

Consider `Cc1cc(C)nc(NCCC[C@H](NS(=O)(=O)c2ccc(-c3ccccc3)cc2)C(=O)O)n1` [Example 169], for which the melting point is 226 to 227 °C.

For `Cc1cc(C)nc(NCCC[C@H](NS(=O)(=O)c2ccc(-c3ccc(Cl)cc3)cc2)C(=O)O)n1` [Example 170], the melting point was in the range of 177 to 179 °C. On stromelysin (MMP-3), this compound yielded an IC50 of 20 nM. Besides, half-maximal inhibition in data set [1] (IC50) required 10 nM.

Take `O=C(O)[C@H](CCCN1C(=O)c2ccc(Cl)cc2C1=O)NS(=O)(=O)c1ccc(-c2ccc(Cl)cc2)cc1` [Example 171]: the figures for the 50% inhibitory concentration (IC50) (on stromelysin (MMP-3); in data set [1]) were 30 nM and 10 nM, respectively.

In turn, `CC(C)(C)OC(=O)NCCC[C@H](NS(=O)(=O)c1ccc(Oc2ccc(Cl)cc2)cc1)C(=O)O` [Example 172] showed a melting point of 131 to 133 °C.
